The test has as its system tested bacteria and fungi (E. coli, S. aureus, P. aeruginosa, C. albicans, A. brasiliensis). Description: Challenge test of preservative efficacy in formulations (ISO 11930). The format is cell-based. An excerpt: Escherichia coli (ATCC 8739), Staphylococcus aureus (ATCC 6538), P. aeruginosa (ATCC 9027), Candida albicans (ATCC 10231), and Aspergillus brasiliensis (ATCC 16404) were obtained from ATCC and cultured according to the manufacturer's instructions. These microorganisms are routinely used for minimum inhibitory concentration (MIC), checkerboards and challenge tests according to the US and EU recommendations for the efficacy of preservatives in the cosmetic industry. Bacterial strains were maintained in tryptic soy agar (TSA) (Hy-labs, Rehovot, Israel), while yeast and mold strains were maintained in sabouraud dextrose agar (SDA) (Hy-labs, Israel), supplemented with oxytetracycline at a concentration of 1% (Hy-labs, Israel). Preservative efficacy assays (challenge tests) were performed in order to enumerate the number of microorganisms present in a formulation containing the preservative system, while the diluent solution was supplemented with neutralizers containing 4% Tween 20 and 0.5% lecithin (Hy-labs, Israel). Challenge tests of preservative efficacy in formulations were performed according to the ISO 11930 regulations. The total count for any prior contamination was performed for all formulations. Specifically, in order to evaluate the antimicrobial and antifungal activity of the preservative system, samples were inoculated separately with each microorganism at a final concentration of 10^6 cfu/mL for bacteria and 10^5 cfu/mL for yeast and mold. Samples were incubated in the dark at 22° C. for 28 days. […] To enumerate the microorganisms at each time point, serial dilutions were made up to 10-4, and 1 mL were seeded in duplicates onto a petri dish with the appropriate media TSA/SDA (bacteria vs. yeast and mold, respectively), using the pour plate method. Plates were incubated at 32° C. for three days for bacteria while yeast and mold were incubated at 22° C. for five days until the enumeration of viable microorganisms. [table]

Consider `CCCCCCC(O)CO` (stereo not drawn) [CG, Caprylyl Glycol], for which the preservative activity result (sole application (without niacinamide)) is given as “didn't show any markable preservative activity”.

For `NC(=O)c1cccnc1` [niacinamide], the “antimicrobial activity of the single agent” value (alone at the above concentrations (about 2.8% niacinamide or about 0.2% cationic surfactant)) is recorded as “only limited antimicrobial activity”. polylysine: for the setting “standalone treatment, 0.1%, non-ionic cream”, the preservative activity result is on record as “didn't show any markable preservative activity”.
